Source: patent publication US20240101573A1, “MACROCYCLIC K-RAS G12C INHIBITOR, PREPARATION METHOD THEREFOR AND USE THEREOF” (Abbisko Therapeutics Co., Ltd., priority 2020, published 2024)

What was measured:
MIA PaCa-2 = assay: Anti-proliferation 2D CTG test (MIA PaCa-2); assay type: cell-based; conditions: MIAPACA-2 cells, 500 cells/well, 5 days incubation with compound, CTG readout
Method: (§1) When the cell confluency was 80%, the cells were isolated with 0.25% trypsin. The isolated cells were resuspended in 5 mL of fresh cell culture medium and centrifuged to collect the cells. The number of cells were counted at the same time. Then, the cells were suspended in a culture medium at a moderate concentration. The cells were placed into a 96-well plate with 1500 cells/well for H358 and 500 cells/well for MIAPACA-2. The 96-well plate was placed in an incubator at 37° C. and incubated overnight.
(§2) 2) Day 1: processing of compound
(§3) A 2 mM stock solution was serially diluted at 10 points at a ratio of 1:3. 5× culture medium containing the compound was transferred to the corresponding wells of 96 wells. The final peak concentration of the compound was […], and the final concentration of DMSO was 0.5%. The 96-well plate was placed in the incubator at 37° C. and incubated for 5 days.
(§4) 3) Baseline reading. 4) Day 6: reading of signals
(§5) A detection reagent (CTG) was added at 50 μL/well, and the signals were read in an Envision instrument.
(§6) The percentage of inhibition ([…]) at each compound concentration was calculated based on the signals from the HPE and ZPE control wells contained in each assay plate and the fluorescence signals from individual compound wells. The inhibition rate in the ZPE control wells containing the enzyme and substrate was 0%, and the inhibition rate in the HPE control wells only containing the substrate was […]. By testing the compound in terms of numeric concentration and inhibition percentage, the compound concentration required for […] inhibition (IC50) was determined using a four-parameter logarithmic dose-response equation. The endpoint value (IC50) of the reference compound was evaluated in each experiment as a quality control measure. If the endpoint value was within three times the expected value, the experiment was considered acceptable.

H358 = assay: Anti-proliferation 2D CTG test (H358); assay type: cell-based; conditions: H358 cells, 1500 cells/well, 5 days incubation with compound, CTG readout
Method: as §1, §2, §3, §4, §5, §6

Compound	IC50 (MIA PaCa-2) [nM]	IC50 (H358) [nM]	IC50 (MIA PaCa-2; Homo sapiens, MIA PaCa-2, 120 h) [nM]	IC50 (H358; Homo sapiens, NCI-H358, 120 h) [nM]
C=CC(=O)N1CCN(c2nc(=O)n3c4nc(c(F)cc24)-c2c(F)cccc2OCC(O)C(OCC)c2ccnc(C(C)C)c2-3)[C@@H](C)C1 (stereo partly drawn) [Example 28, 2^4-((S)-4-acryloyl-2-methylpiperazin-1-yl)-7-ethoxy-2^6,3^6-difluoro-6-hydroxy-1^2-isopropyl-2^1,2^2-dihydro-4-oxa-2(1,7)-pyrido[2,3-d]pyrimidina-1(3,4)-pyridina-3(1,2)-benzocycloheptane-2^2-one]	27	28		
C=CC(=O)N1CCN(c2nc(=O)n3c4nc(c(F)cc24)-c2c(F)cccc2OCC(OCC)C(O)c2ccnc(C(C)C)c2-3)[C@@H](C)C1 (stereo partly drawn) [Example 29, 2^4-((S)-4-acryloyl-2-methylpiperazin-1-yl)-6-ethoxy-2^6,3^6-difluoro-7-hydroxy-1^2-isopropyl-2^1,2^2-dihydro-4-oxa-2(1,7)-pyrido[2,3-d]pyrimidina-1(3,4)-pyridina-3(1,2)-benzocycloheptane-2^2-one]	6	6		
C=CC(=O)N1CCN(c2nc(=O)n3c4nc(c(F)cc24)-c2c(F)cccc2OCC(O)C(OCC(F)F)c2ccnc(C(C)C)c2-3)[C@@H](C)C1 (stereo partly drawn) [Example 32, 2^4-((S)-4-acryloyl-2-methylpiperazin-1-yl)-7-(2,2-difluoroethoxy)-2^6,3^6-difluoro-6-hydroxy-1^2-isopropyl-2^1,2^2-dihydro-4-oxa-2(1,7)-pyrido[2,3-d]pyrimidina-1(3,4)-pyridina-3(1,2)-benzocycloheptane-2^2-one]	69	41		
C=CC(=O)N1CCN(c2nc(=O)n3c4nc(c(F)cc24)-c2c(F)cccc2OCC(OCC(F)F)C(O)c2ccnc(C(C)C)c2-3)[C@@H](C)C1 (stereo partly drawn) [Example 33, 2^4-((S)-4-acryloyl-2-methylpiperazin-1-yl)-6-(2,2-difluoroethoxy)-2^6,3^6-difluoro-7-hydroxy-1^2-isopropyl-2^1,2^2-dihydro-4-oxa-2(1,7)-pyrido[2,3-d]pyrimidina-1(3,4)-pyridina-3(1,2)-benzocycloheptane-2^2-one]	154	42		
C=CC(=O)N1CCN(c2nc(=O)n3c4nc(c(F)cc24)-c2c(F)cccc2OCC(OC(C)C)C(O)c2ccnc(C(C)C)c2-3)[C@@H](C)C1 (stereo partly drawn) [Example 34, 2^4-((S)-4-acryloyl-2-methylpiperazin-1-yl)-6-isopropoxy-2^6,3^6-difluoro-7-hydroxy-1^2-isopropyl-2^1,2^2-dihydro-4-oxa-2(1,7)-pyrido[2,3-d]pyrimidina-1(3,4)-pyridina-3(1,2)-benzocycloheptane-2^2-one]	7	4		
C=CC(=O)N1C[C@H](C)N(c2nc(=O)n3c4nc(c(F)cc24)-c2c(F)cccc2OCC(O)C(OCC)c2ccnc(C(C)C)c2-3)C[C@H]1C (stereo partly drawn) [Example 35, 2^4-((2S,5R)-4-acryloyl-2,5-dimethylpiperazin-1-yl)-7-ethoxy-2^6,3^6-difluoro-6-hydroxy-1^2-isopropyl-2^1,2^2-dihydro-4-oxa-2(1,7)-pyrido[2,3-d]pyrimidina-1(3,4)-pyridina-3(1,2)-benzocycloheptane-2^2-one]	4	11		
C=CC(=O)N1C[C@H](C)N(c2nc(=O)n3c4nc(c(F)cc24)-c2c(F)cccc2OCC(OCC)C(O)c2ccnc(C(C)C)c2-3)C[C@H]1C (stereo partly drawn) [Example 36, (R)-2^4-((2S,5R)-4-acryloyl-2,5-dimethylpiperazin-1-yl)-6-ethoxy-2^6,3^6-difluoro-7-hydroxy-1^2-isopropyl-2^1,2^2-dihydro-4-oxa-2(1,7)-pyrido[2,3-d]pyrimidina-1(3,4)-pyridina-3(1,2)-benzocycloheptane-2^2-one]			1	1
C=CC(=O)N1CCN(c2nc(=O)n3c4nc(c(F)cc24)-c2c(F)cccc2OCC(O)C(OCCF)c2ccnc(C(C)C)c2-3)[C@@H](C)C1 (stereo partly drawn) [Example 37, (R)-2^4-((S)-4-acryloyl-2-methylpiperazin-1-yl)-2^6,3^6-difluoro-7-(2-fluoroethoxy)-6-hydroxy-1^2-isopropyl-2^1,2^2-dihydro-4-oxa-2(1,7)-pyrido[2,3-d]pyrimidina-1(3,4)-pyridina-3(1,2)-benzocycloheptane-2^2-one]	5	14		
C=CC(=O)N1CCN(c2nc(=O)n3c4nc(c(F)cc24)-c2c(F)cccc2OCC(OCCF)C(O)c2ccnc(C(C)C)c2-3)[C@@H](C)C1 (stereo partly drawn) [Example 39, (R)-2^4-((S)-4-acryloyl-2-methylpiperazin-1-yl)-2^6,3^6-difluoro-6-(2-fluoroethoxy)-7-hydroxy-1^2-isopropyl-2^1,2^2-dihydro-4-oxa-2(1,7)-pyrido[2,3-d]pyrimidina-1(3,4)-pyridina-3(1,2)-benzocycloheptane-2^2-one]	2	4		
C=CC(=O)N1CCN(c2nc(=O)n3c4nc(c(F)cc24)-c2c(F)cccc2OCC(O)C(OC)c2ccnc(C(C)C)c2-3)[C@@H](C)C1 (stereo partly drawn) [Example 41, (R)-2^4-((S)-4-acryloyl-2-methylpiperazin-1-yl)-7-methoxy-2^6,3^6-difluoro-6-hydroxy-1^2-isopropyl-2^1,2^2-dihydro-4-oxa-2(1,7)-pyrido[2,3-d]pyrimidina-1(3,4)-pyridina-3(1,2)-benzocycloheptane-2^2-one]	2	3		
C=CC(=O)N1CCN(c2nc(=O)n3c4nc(c(F)cc24)-c2c(F)cccc2OCC(O)C(OC)c2ccnc(C(C)C)c2-3)[C@@H](C)C1 (stereo partly drawn) [Example 42, (S)-2^4-((S)-4-acryloyl-2-methylpiperazin-1-yl)-7-methoxy-2^6,3^6-difluoro-6-hydroxy-1^2-isopropyl-2^1,2^2-dihydro-4-oxa-2(1,7)-pyrido[2,3-d]pyrimidina-1(3,4)-pyridina-3(1,2)-benzocycloheptane-2^2-one]	669	977		
C=CC(=O)N1CCN(c2nc(=O)n3c4nc(c(F)cc24)-c2c(F)cccc2OCC(O)C(OCC)c2ccnc(C(C)C)c2-3)[C@@H](C)C1 (stereo partly drawn) [Example 43, (R)-2^4-((S)-4-acryloyl-2-methylpiperazin-1-yl)-7-ethoxy-2^6,3^6-difluoro-6-hydroxy-1^2-isopropyl-2^1,2^2-dihydro-4-oxa-2(1,7)-pyrido[2,3-d]pyrimidina-1(3,4)-pyridina-3(1,2)-benzocycloheptane-2^2-one]	6	5		
C=CC(=O)N1CCN(c2nc(=O)n3c4nc(c(F)cc24)-c2c(F)cccc2OCC(O)C(OCC)c2ccnc(C(C)C)c2-3)[C@@H](C)C1 (stereo partly drawn) [Example 44, (S)-2^4-((S)-4-acryloyl-2-methylpiperazin-1-yl)-7-ethoxy-2^6,3^6-difluoro-6-hydroxy-1^2-isopropyl-2^1,2^2-dihydro-4-oxa-2(1,7)-pyrido[2,3-d]pyrimidina-1(3,4)-pyridina-3(1,2)-benzocycloheptane-2^2-one]	125	250		
C=CC(=O)N1CCN(c2nc(=O)n3c4nc(c(F)cc24)-c2c(F)cccc2OCC(OCC)C(O)c2ccnc(C(C)C)c2-3)[C@@H](C)C1 (stereo partly drawn) [Example 45, (R)-2^4-((S)-4-acryloyl-2-methylpiperazin-1-yl)-6-ethoxy-2^6,3^6-difluoro-7-hydroxy-1^2-isopropyl-2^1,2^2-dihydro-4-oxa-2(1,7)-pyrido[2,3-d]pyrimidina-1(3,4)-pyridina-3(1,2)-benzocycloheptane-2^2-one]	2	2		
